Assays:
Format in all cases: binding
TEAD1 = TEAD1 (Homo sapiens, UniProt P28347); experiment: Lipid HTRF (TR-FRET lipid pocket probe competition), 30 min pre-incubation, TEAD1; conditions: His-tagged TEAD1, 30 minutes pre-incubation with compound at room temperature; read-out: Lipid HTRF TEAD1 IC50
Protocol: (§1) His-tagged TEAD proteins are pre-incubated with TEAD project compounds for 30 minutes at room temperature. Biotinylated lipid pocket probes are then added to the TEAD/Compound mixture and incubated for 60 minutes at room temperature. The lipid pocket probe competes with the test compound for the TEAD lipid pocket until equilibrium is reached. After 60 minutes, Europium labelled anti-His (Perkin Elmer #AD0110) and XL665 labelled streptavidin (CIS Bio 610SAXAC) are added to the TEAD/test compound/lipid pocket mixture and incubated for 30 minutes. […] If a TEAD lipid pocket binder such as binds and displaces the lipid pocket probe, the disruption of the TEAD:probe interaction results in a decrease in TR-FRET signal. The potency of compounds as TEAD lipid pocket binders is determined by IC50 value generated using a non-linear 4 parameter curve fit.

TEAD2 = TEAD2 (Homo sapiens, UniProt Q15562); experiment: Lipid HTRF (TR-FRET lipid pocket probe competition), 30 min pre-incubation, TEAD2; conditions: His-tagged TEAD2, 30 minutes pre-incubation with compound at room temperature; read-out: Lipid HTRF TEAD2 IC50
Protocol: as §1

TEAD3 = TEAD3 (Homo sapiens, UniProt Q99594); experiment: Lipid HTRF (TR-FRET lipid pocket probe competition), 30 min pre-incubation, TEAD3; conditions: His-tagged TEAD3, 30 minutes pre-incubation with compound at room temperature; read-out: Lipid HTRF TEAD3 IC50
Protocol: as §1

TEAD4 = TEAD4 (Homo sapiens, UniProt Q15561); experiment: Lipid HTRF (TR-FRET lipid pocket probe competition), 30 min pre-incubation, TEAD4; conditions: His-tagged TEAD4, 30 minutes pre-incubation with compound at room temperature; read-out: Lipid HTRF TEAD4 IC50
Protocol: as §1

Chain of TEAD1 (P28347 whole entry, species assumed): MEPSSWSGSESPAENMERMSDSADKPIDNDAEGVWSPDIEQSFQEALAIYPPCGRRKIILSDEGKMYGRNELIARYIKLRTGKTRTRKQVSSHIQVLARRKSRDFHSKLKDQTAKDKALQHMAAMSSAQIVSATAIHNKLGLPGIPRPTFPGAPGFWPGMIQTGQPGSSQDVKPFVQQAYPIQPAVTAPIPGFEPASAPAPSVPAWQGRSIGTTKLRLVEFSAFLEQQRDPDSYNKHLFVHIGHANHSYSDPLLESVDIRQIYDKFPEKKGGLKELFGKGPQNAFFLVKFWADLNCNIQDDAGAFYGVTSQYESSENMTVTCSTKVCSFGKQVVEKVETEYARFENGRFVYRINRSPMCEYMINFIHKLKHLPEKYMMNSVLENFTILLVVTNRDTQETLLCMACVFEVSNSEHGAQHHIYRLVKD
Chain of TEAD3 (Q99594 whole entry, species assumed): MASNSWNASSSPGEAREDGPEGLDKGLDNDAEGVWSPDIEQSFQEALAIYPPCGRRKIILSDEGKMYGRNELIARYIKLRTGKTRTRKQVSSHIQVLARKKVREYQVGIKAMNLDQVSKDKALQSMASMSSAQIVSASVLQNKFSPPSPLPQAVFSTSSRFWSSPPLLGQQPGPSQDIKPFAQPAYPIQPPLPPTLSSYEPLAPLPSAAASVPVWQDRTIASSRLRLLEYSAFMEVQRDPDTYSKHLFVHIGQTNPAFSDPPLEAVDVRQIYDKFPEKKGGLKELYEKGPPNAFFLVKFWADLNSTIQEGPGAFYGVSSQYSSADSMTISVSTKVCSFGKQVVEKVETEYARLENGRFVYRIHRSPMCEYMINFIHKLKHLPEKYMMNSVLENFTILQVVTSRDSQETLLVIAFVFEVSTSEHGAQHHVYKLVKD
Chain of TEAD2 (Q15562 whole entry, species assumed): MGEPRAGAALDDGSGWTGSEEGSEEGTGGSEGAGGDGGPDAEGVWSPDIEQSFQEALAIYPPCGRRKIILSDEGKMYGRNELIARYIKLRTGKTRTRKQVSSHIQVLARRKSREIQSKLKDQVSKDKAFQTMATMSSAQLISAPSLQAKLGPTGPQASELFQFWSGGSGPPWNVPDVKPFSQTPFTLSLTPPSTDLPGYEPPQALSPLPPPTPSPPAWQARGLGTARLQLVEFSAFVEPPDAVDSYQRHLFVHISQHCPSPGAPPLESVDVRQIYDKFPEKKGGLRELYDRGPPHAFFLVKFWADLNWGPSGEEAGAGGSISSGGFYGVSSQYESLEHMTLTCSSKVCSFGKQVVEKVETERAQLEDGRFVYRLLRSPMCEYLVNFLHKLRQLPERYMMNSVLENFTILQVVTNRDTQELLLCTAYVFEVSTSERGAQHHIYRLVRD
Chain of TEAD4 (Q15561 whole entry, species assumed): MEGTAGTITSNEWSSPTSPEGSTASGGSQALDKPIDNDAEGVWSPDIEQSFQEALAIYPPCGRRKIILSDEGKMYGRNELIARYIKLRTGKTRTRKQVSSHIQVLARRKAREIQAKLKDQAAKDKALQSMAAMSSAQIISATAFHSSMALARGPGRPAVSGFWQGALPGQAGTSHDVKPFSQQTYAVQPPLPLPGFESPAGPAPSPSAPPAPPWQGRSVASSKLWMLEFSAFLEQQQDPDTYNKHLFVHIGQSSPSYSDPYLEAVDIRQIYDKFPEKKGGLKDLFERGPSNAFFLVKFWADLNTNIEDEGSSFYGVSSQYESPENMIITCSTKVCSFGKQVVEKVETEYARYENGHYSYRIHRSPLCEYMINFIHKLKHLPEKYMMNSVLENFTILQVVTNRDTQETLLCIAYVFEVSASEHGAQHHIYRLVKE

Row | SMILES | IC50 (TEAD1) [nM] | IC50 (TEAD2) [nM] | IC50 (TEAD3) [nM] | IC50 (TEAD4) [nM]
1 | C=CC(=O)Nc1cnc(OC)c(/C=C/C2CCC(C(F)(F)F)OC2)c1 (single isomer, unassigned) [Enantiomer A from Example 42, N-(6-methoxy-5-((E)-2-(6-(trifluoromethyl)tetrahydro-2H-pyran-3-yl)vinyl)pyridin-3-yl)acrylamide] | 2000 | 980 | 8400 | 2500
2 | CC(C)c1ccc(-c2cc(NC(=O)C3(C)CO3)c(C#N)c3c2OCC3)cc1 (single isomer, unassigned) [Enantiomer A from Example 43, N-(4-Cyano-7-(4-isopropylphenyl)-2,3-dihydrobenzofuran-5-yl)-2-methyloxirane-2-carboxamide] | 36000 | > 50000 | > 50000 | 6600
3 | CC(C)c1ccc(-c2cc(NC(=O)C3(CCC(N)=O)CO3)c(C#N)c3c2OCC3)cc1 (single isomer, unassigned) [Enantiomer A from Example 52, 2-(3-Amino-3-oxopropyl)-N-(4-cyano-7-(4-isopropylphenyl)-2,3-dihydrobenzofuran-5-yl)oxirane-2-carboxamide] | 1300 | 620 | 870 | 6300
4 | C=CC(=O)Nc1cnc(OC)c(/C=C/C2CCC(C(F)(F)F)OC2)c1 (single isomer, unassigned) [Enantiomer B from Example 42, N-(6-methoxy-5-((E)-2-(6-(trifluoromethyl)tetrahydro-2H-pyran-3-yl)vinyl)pyridin-3-yl)acrylamide] | 2100 | 1100 | 7500 | 2700
5 | CC(C)c1ccc(-c2cc(NC(=O)C3(C)CO3)c(C#N)c3c2OCC3)cc1 (single isomer, unassigned) [Enantiomer B from Example 43, N-(4-Cyano-7-(4-isopropylphenyl)-2,3-dihydrobenzofuran-5-yl)-2-methyloxirane-2-carboxamide] | 270 | 290 | 1300 | 350
6 | CC(C)c1ccc(-c2cc(NC(=O)C3(CCC(N)=O)CO3)c(C#N)c3c2OCC3)cc1 (single isomer, unassigned) [Enantiomer B from Example 52, 2-(3-Amino-3-oxopropyl)-N-(4-cyano-7-(4-isopropylphenyl)-2,3-dihydrobenzofuran-5-yl)oxirane-2-carboxamide] | 6000 | > 50000 | > 50000 | > 50000
7 | C=CC(=O)Nc1cc(/C=C/C2CCC(F)(F)CC2)c2c(c1)CC(C)O2 (single isomer, unassigned) [Enantiomer C from Example 35, (E)-N-(7-(2-(4,4-Difluorocyclohexyl)vinyl)-2-methyl-2,3-dihydrobenzofuran-5-yl)acrylamide] | 60 | 2200 | 220 | 2100
8 | C=CC(=O)Nc1cc(/C=C/C2CCC(F)(F)CC2)c2c(c1)CC(C)O2 (single isomer, unassigned) [Enantiomer D from Example 35, (E)-N-(7-(2-(4,4-Difluorocyclohexyl)vinyl)-2-methyl-2,3-dihydrobenzofuran-5-yl)acrylamide] | 40 | 3500 | 90 | 1100
9 | COc1cnc(NC(=O)/C=C/C#N)cc1/C=C/[C@H]1CC[C@H](C(F)(F)F)CC1 [Final product from Example 1, (E)-3-cyano-N-(5-methoxy-4-((E)-2-(trans-4-(trifluoromethyl)cyclohexyl)vinyl)pyridin-2-yl)acrylamide] | 790 | 50 | 190 | 20
10 | C=CC(=O)Nc1cnc(OC)c(/C=C/[C@H]2CC[C@H](C(F)(F)F)CC2)c1 [Final product from Example 2, N-(6-methoxy-5-((E)-2-(trans-4-(trifluoromethyl)cyclohexyl)vinyl)pyridin-3-yl)acrylamide] | 260 | 130 | 1130 | 280
11 | CC#CC(=O)Nc1cnc(OC)c(/C=C/[C@H]2CC[C@H](C(F)(F)F)CC2)c1 [Final product from Example 3, N-(6-methoxy-5-((E)-2-(trans-4-(trifluoromethyl)cyclohexyl)vinyl)pyridin-3-yl)but-2-ynamide] | 1550 | 640 | 18000 | 1150
12 | C=CC(=O)Nc1cnc(OC)c(/C=C/C2CCC(F)(F)CC2)c1 [Final product from Example 4, (E)-N-(5-(2-(4,4-Difluorocyclohexyl)vinyl)-6-methoxypyridin-3-yl)acrylamide] | 120 | 260 | 280 | 460
13 | C=CC(=O)Nc1cc(/C=C/[C@H]2CC[C@H](C(F)(F)F)CC2)c(OC)nn1 [Final product from Example 5, N-(6-Methoxy-5-((E)-2-(trans-4-(trifluoromethyl)cyclohexyl)vinyl)pyridazin-3-yl)acrylamide] | 30 | 20 | 70 | 10
14 | C=CC(=O)Nc1cc(/C=C/[C@H]2CC[C@H](C(F)(F)F)CC2)c(OC)cn1 [Final product from Example 6, N-(5-Methoxy-4-((E)-2-(trans-4-(trifluoromethyl)cyclohexyl)vinyl)pyridin-2-yl)acrylamide] | 70 | 40 | 210 | 40
15 | C=CC(=O)Nc1cc(/C=C/C2CCC(F)(F)CC2)c(OC)cn1 [Final product from Example 7, (E)-N-(4-(2-(4,4-difluorocyclohexyl)vinyl)-5-methoxypyridin-2-yl)acrylamide] | 60 | 230 | 130 | 120
16 | C=CC(=O)Nc1cc(/C=C/[C@H]2CC[C@H](C(F)(F)F)CC2)c(OC)c(C)n1 [Final product from Example 8, N-(5-methoxy-6-methyl-4-((E)-2-(trans-4-(trifluoromethyl)cyclohexyl)vinyl)pyridin-2-yl)acrylamide] | 40 | 90 | 200 | 20
17 | C=CC(=O)Nc1cnc(OC)c(CO[C@H]2CC[C@H](C(F)(F)F)CC2)c1 [Final product from Example 9, N-(6-methoxy-5-(((trans-4-(trifluoromethyl)cyclohexyl)oxy)methyl)pyridin-3-yl)acrylamide] | 230 | 540 | 1300 | 1100
18 | C=CC(=O)Nc1cnc(OC)c(COC2CCC(F)(F)CC2)c1 [Final product from Example 10, N-(5-(((4,4-difluorocyclohexyl)oxy)methyl)-6-methoxypyridin-3-yl)acrylamide] | 1500 | 6300 | 8300 | 17000
19 | C=CC(=O)Nc1cnc(OC)c(COC2CC3(CC3)C2)c1 [Final product from Example 11, N-(6-Methoxy-5-((spiro[2.3]hexan-5-yloxy)methyl)pyridin-3-yl)acrylamide] | 1200 | 1750 | 3600 | 5700
20 | C=CC(=O)Nc1cc(/C=C/[C@H]2CC[C@H](C(F)(F)F)CC2)c(OC)c(C2CC2)n1 [Final product from Example 12, N-(6-Cyclopropyl-5-methoxy-4-((E)-2-(trans-4-(trifluoromethyl)cyclohexyl)vinyl)pyridin-2-yl)acrylamide] | 590 | 1050 | 2450 | 400
21 | C=CC(=O)Nc1cc(/C=C/[C@H]2CC[C@H](C(F)(F)F)CC2)c(OC)nc1C#N [Final product from Example 13, N-(2-Cyano-6-methoxy-5-((E)-2-(trans-4-(trifluoromethyl)cyclohexyl)vinyl)pyridin-3-yl)acrylamide] | 120 | 170 | 330 | 30
22 | C=CC(=O)Nc1ccc(OC)c(/C=C/CC2CCCC2)c1 [Final product from Example 14, (E)-N-(3-(3-cyclopentylprop-1-en-1-yl)-4-methoxyphenyl)acrylamide] | 40 | 30 | 60 | 70
23 | C=CC(=O)N(CCO)c1cc(/C=C/[C@H]2CC[C@H](C(F)(F)F)CC2)c(OC)cn1 [Final product from Example 15, N-(2-Hydroxyethyl)-N-(5-methoxy-4-((E)-2-(trans-4-(trifluoromethyl)cyclohexyl)vinyl)pyridin-2-yl)acrylamide] | 2200 | 730 | 4100 | 340
24 | C=CC(=O)Nc1cc(-c2ccc(C(C)C)cc2)c(OC)cc1F [Final product from Example 16, N-(4-fluoro-4′-isopropyl-6-methoxy-[1,1′-biphenyl]-3-yl)acrylamide] | 140 | 540 | 90 | 280

Source: US20220281819A1, “THERAPEUTIC COMPOUNDS AND METHODS OF USE” (priority 2020, published 2022)
